{
  "source": "patent US7994211B2",
  "about": "“Bicyclo[2.2.1]hept-7-ylamine derivatives and their uses” (Argenta Discovery Limited, priority 2005, dated 2011)",
  "key": {"[1]": {"biological_target": "T1, human muscarinic receptors (M3) (Homo sapiens, UniProt P20309)", "T1 construct": "purchased", "T1 sequence (P20309 whole entry)": "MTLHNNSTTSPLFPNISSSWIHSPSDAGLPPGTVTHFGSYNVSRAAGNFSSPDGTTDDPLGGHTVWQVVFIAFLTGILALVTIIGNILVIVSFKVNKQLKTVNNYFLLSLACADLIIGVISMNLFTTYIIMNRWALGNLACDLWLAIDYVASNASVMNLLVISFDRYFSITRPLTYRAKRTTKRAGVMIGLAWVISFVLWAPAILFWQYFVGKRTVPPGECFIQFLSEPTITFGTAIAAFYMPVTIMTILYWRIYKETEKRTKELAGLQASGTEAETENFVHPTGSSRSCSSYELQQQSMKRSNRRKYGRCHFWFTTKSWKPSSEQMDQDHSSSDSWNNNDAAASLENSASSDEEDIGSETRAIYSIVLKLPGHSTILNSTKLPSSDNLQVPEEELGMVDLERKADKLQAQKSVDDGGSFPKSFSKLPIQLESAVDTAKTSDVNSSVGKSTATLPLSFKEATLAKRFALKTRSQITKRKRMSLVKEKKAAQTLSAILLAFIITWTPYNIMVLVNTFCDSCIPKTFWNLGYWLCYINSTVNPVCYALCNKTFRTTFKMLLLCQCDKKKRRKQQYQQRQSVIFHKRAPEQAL", "test": "Muscarinic receptor radioligand binding assay ([3H]-NMS)", "conditions": "membranes expressing human M3 receptor, read-out: Binding potency (M3 binding potencies, Ki values)", "procedure": "Radioligand binding studies utilising [^3H]-N-methyl scopolamine ([^3H]-NMS) and commercially available cell membranes expressing the human muscarinic receptors (M2 and M3) were used to assess the affinity of muscarinic antagonists for M2 and M3 receptors. Membranes in TRIS buffer were incubated in 96-well plates with [^3H]-NMS and M3 antagonist at various concentrations for 3 hours. Membranes and bound radioligand were then harvested by filtration and allowed to dry overnight. Scintillation fluid was then added and the bound radioligand counted using a Canberra Packard Topcount scintillation counter."}, "[2]": {"biological_target": "T2, human β2 adrenergic receptor (Homo sapiens, UniProt P07550)", "T2 construct": "purchased", "T2 sequence (P07550 whole entry)": "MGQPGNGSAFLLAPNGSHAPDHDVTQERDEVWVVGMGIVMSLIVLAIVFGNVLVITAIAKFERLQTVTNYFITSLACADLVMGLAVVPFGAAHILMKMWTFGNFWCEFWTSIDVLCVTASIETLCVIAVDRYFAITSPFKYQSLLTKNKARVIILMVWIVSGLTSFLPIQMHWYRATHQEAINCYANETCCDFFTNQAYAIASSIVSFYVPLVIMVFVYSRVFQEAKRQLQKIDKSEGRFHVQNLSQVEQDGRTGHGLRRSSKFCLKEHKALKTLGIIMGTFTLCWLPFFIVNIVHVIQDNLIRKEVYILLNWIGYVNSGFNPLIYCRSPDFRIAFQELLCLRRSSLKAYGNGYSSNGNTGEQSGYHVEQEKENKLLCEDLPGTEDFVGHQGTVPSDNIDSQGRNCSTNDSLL", "test": "β-Adrenergic receptor radioligand binding assay ([125I]-Iodocyanopindolol)", "procedure": "Radioligand binding studies utilising [^125I]-Iodocyanopindolol and commercially available cell membranes expressing the human β2 adrenergic receptor were used to assess the affinity of antagonists for β2-adrenergic receptor. Membranes and SPA-beads were incubated with [^125I]-Iodocyanopindolol and β2 antagonist at various concentrations for 3 hours at ambient temperature in TRIS buffer. The assay was performed in 96-well plates which were read using the Wallac Microbeta counter."}},
  "data": [
    {"compound": "CN(C)C1C2CCC1C(OC(=O)Nc1ccccc1-c1ccccc1)C2", "note": "(racemic) [Example 1, (±)-anti-Biphenyl-2-yl-carbamic acid 7-dimethylamino-bicyclo[2.2.1]hept-2-yl ester]", "values": [
      {"measurement": "Ki", "setting": "[1]", "result": "< 1", "unit": "nM"}
    ]},
    {"compound": "C[N+](C)(C)C1C2CCC1C(OC(=O)Nc1ccccc1-c1ccccc1)C2", "note": "(racemic) [Example 8, (±)-syn-[2-(Biphenyl-2-ylcarbamoyloxy)-bicyclo[2.2.1]hept-7-yl]-trimethyl-ammonium iodide]", "values": [
      {"measurement": "Ki", "setting": "[1]", "result": "1 to 10", "unit": "nM"}
    ]},
    {"compound": "CN(C)C1C2CCC1C(OC(=O)Nc1ccccc1-c1ccccc1)C2", "note": "(single isomer, unassigned) [Example 2, anti-Biphenyl-2-yl-carbamic acid 7-dimethylamino-bicyclo[2.2.1]hept-2-yl ester]", "values": [
      {"measurement": "Ki", "setting": "[1]", "result": "< 1", "unit": "nM"}
    ]},
    {"compound": "CN(C)C1C2CCC1C(OC(=O)Nc1ccccc1-c1ccccc1)C2", "note": "(single isomer, unassigned) [Example 3, anti-Biphenyl-2-yl-carbamic acid 7-dimethylamino-bicyclo[2.2.1]hept-2-yl ester]", "values": [
      {"measurement": "Ki", "setting": "[1]", "result": "1 to 10", "unit": "nM"}
    ]},
    {"compound": "CN(C)C1C2CCC1C(OC(=O)Nc1ccccc1-c1ccccc1)C2", "note": "(single isomer, unassigned) [Example 6, syn-Biphenyl-2-yl-carbamic acid 7-dimethylamino-bicyclo[2.2.1]hept-2-yl ester]", "values": [
      {"measurement": "Ki", "setting": "[1]", "result": "1 to 10", "unit": "nM"}
    ]},
    {"compound": "CN(C)C1C2CCC1C(OC(=O)Nc1ccccc1-c1ccccc1)C2", "note": "(single isomer, unassigned) [Example 7, syn-Biphenyl-2-yl-carbamic acid 7-dimethylamino-bicyclo[2.2.1]hept-2-yl ester]", "values": [
      {"measurement": "Ki", "setting": "[1]", "result": "1 to 10", "unit": "nM"}
    ]},
    {"compound": "CN(CCCOc1ccccc1)C1C2CCC1C(OC(=O)Nc1ccccc1-c1ccccc1)C2", "note": "(single isomer, unassigned) [Example 9, anti-Biphenyl-2-yl-carbamic acid-7-[methyl-(3-phenoxy-propyl)-amino]bicyclo[2.2.1]hept-2-yl ester]", "values": [
      {"measurement": "Ki", "setting": "[1]", "result": "> 10", "unit": "nM"}
    ]},
    {"compound": "CN(CCCOc1ccccc1)C1C2CCC1C(OC(=O)Nc1ccccc1-c1ccccc1)C2", "note": "(single isomer, unassigned) [Example 10, anti-Biphenyl-2-yl-carbamic acid-7-[methyl-(3-phenoxy-propyl)-amino]-bicyclo[2.2.1]hept-2-yl ester]", "values": [
      {"measurement": "Ki", "setting": "[1]", "result": "> 10", "unit": "nM"}
    ]},
    {"compound": "C[N+](C)(CCCOc1ccccc1)C1C2CCC1C(OC(=O)Nc1ccccc1-c1ccccc1)C2", "note": "(single isomer, unassigned) [Example 11]", "values": [
      {"measurement": "Ki", "setting": "[1]", "result": "< 1", "unit": "nM"}
    ]},
    {"compound": "C[N+](C)(CCCOc1ccccc1)C1C2CCC1C(OC(=O)Nc1ccccc1-c1ccccc1)C2", "note": "(single isomer, unassigned) [Example 12]", "values": [
      {"measurement": "Ki", "setting": "[1]", "result": "< 1", "unit": "nM"}
    ]},
    {"compound": "CN(CCCOc1ccccc1)C1C2CCC1C(OC(=O)C1c3ccccc3Oc3ccccc31)C2", "note": "[Example 34, anti-(1S,2R) 9H-Xanthene-9-carboxylic acid 7-[methyl-(3-phenoxy-propyl)-amino]-bicyclo[2.2.1]hept-2-yl ester]", "values": [
      {"measurement": "Ki", "setting": "[1]", "result": "1 to 10", "unit": "nM"}
    ]},
    {"compound": "C[N+](C)(CCCOc1ccccc1)C1C2CCC1C(OC(=O)C1c3ccccc3Oc3ccccc31)C2", "note": "[Example 36, anti-(1S,2R) Dimethyl-(3-phenoxy-propyl)-[2-(9H-xanthene-9-carbonyloxy)-bicyclo[2.2.1]hept-7-yl]-ammonium bromide]", "values": [
      {"measurement": "Ki", "setting": "[1]", "result": "< 1", "unit": "nM"}
    ]},
    {"compound": "C[N+](C)(CCCOc1ccccc1)C1C2CCC1C(OCC(O)(c1ccccc1)c1ccccc1)C2", "note": "[Example 40, anti-(1S,2R) 2-(2-Hydroxy-2,2-diphenyl-ethoxy)-bicyclo[2.2.1]hept-7-yl]-dimethyl-(3-phenoxy-propyl)-ammonium bromide]", "values": [
      {"measurement": "Ki", "setting": "[1]", "result": "> 10", "unit": "nM"}
    ]},
    {"compound": "CN(CCCCCCCCCNC[C@H](O)c1ccc(O)c2[nH]c(=O)ccc12)[C@H]1[C@H]2CC[C@@H]1[C@H](OC(=O)C(O)(c1cccs1)c1cccs1)C2", "note": "[Example 41, Hydroxy-di-thiophen-2-yl-acetic acid (1S,2R,4S,7S)-7-({9-[(R)-2-hydroxy-2-(8-hydroxy-2-oxo-1,2-dihydro-quinolin-5-yl)-ethylamino]-nonyl}-methyl-amino)-bicyclo[2.2.1]hept-2-yl ester]", "values": [
      {"measurement": "Ki", "setting": "[2]", "result": "< 100", "unit": "nM"}
    ]}
  ]
}
